Results reported in US20220160706A1, “PHARMACEUTICAL COMBINATION COMPRISING TNO155 AND A PD-1 INHIBITOR” (NOVARTIS AG, priority 2019, published 2022).
“And” between values parts separate entries of the source, which are not always exact repeats. Equal entries are not always repeated.

Columns and labels:
HNSCC = HNSCC patients progressed on platinum-based chemotherapy; cited from earlier work
[1] = test system: phosphorylated ERK1/2 (pERK); experiment: in vitro pERK inhibition in KYSE-520; assay type: cell-based; conditions: Homo sapiens; KYSE-520 cells
From the text: (§1) SHP2 inhibition can be measured by assessing biomarkers within the MAPK signaling pathway, such as decreased levels of phosphorylated ERK1/2 (pERK) and downregulation of dual specificity phosphatase 6 (DUSP6) mRNA transcript.

[2] = test system: phosphorylated ERK1/2 (pERK); experiment: in vitro pERK inhibition in DETROIT-562; assay type: cell-based; conditions: Homo sapiens; DETROIT-562 cells
From the text: as §1

[3] = test system: KYSE-520 (esophageal squamous cell carcinoma) cancer cell line; experiment: antiproliferation in KYSE-520; assay type: cell-based; conditions: Homo sapiens; KYSE-520 cells
From the text: as §1

[4] = test system: DETROIT-562 (pharyngeal squamous cell carcinoma) cancer cell line; experiment: antiproliferation in DETROIT-562; assay type: cell-based; conditions: Homo sapiens; DETROIT-562 cells
[5] = test system: EGFR-dependent DETROIT-562 cancer cell line; experiment: in vivo SHP2 inhibition and efficacy, DETROIT-562 xenograft; conditions: oral 20 mg/kg
From the text: as §1

MC38 cell line = MC38 cell line in vitro proliferation/viability; assay type: cell-based, mouse; conditions: MC38 (PTPN11 G503V) in vitro, absence of immune cells
MC38 xenografts = MC38 xenografts in immunocompromised NSG mice; assay type: in vivo, mouse
MC38 tumors = experiment: MC38 syngeneic tumors in immune-competent C57BL/6 mice, anti-tumor activity; assay type: in vivo, mouse; conditions: day 14 post-first dose, TNO155 20 mg/kg BID, anti-PD1 10 mg/kg QW
CD14+ monocytes = experiment: M-CSF stimulated proliferation of CD14+ monocytes (CellTiter-Glo); assay type: cell-based, human; conditions: 50 ng/mL M-CSF, 6 days incubation
Protocol: Investigation of the effect of TNO155 on M-CSF stimualted proliferation of CD14+ monocytes. Peripheral blood mononuclear cells (PBMC) were isolated from the whole blood of two donors (donor 1670 and […]) by CPT tubes and spinning at 1800 rpm for 20 minutes. CD14 positive monocytes were then isolated from PBMC using human Pan Monocyte Isolation Kit (Miltenyi Biotec #130-096-537). 5000 monocytes suspended in 100 μL RPMI media were seeded in 96 well plates with 50 ng/mL recombinant M-CSF. 24 hours later, TNO155 was added at the indicated final concentrations. A CellTiter-Glo® (CTG) cell viability assay was performed according to manufacturer's instructions using a separate plate with identically seeded cells and also performed for all plates after 6 days of incubation with TNO155. The Day 6 measurements were normalized with DMSO treated groups as 100% to evaluate the TNO155 effects on the M-CSF stimulated proliferation of monocytes and the Day 0 cell seeding measurement was indicated by the light dotted line.

in vivo = conditions: mouse
IL-2 production = assay type: cell-based; conditions: human blood ex vivo, super antigen stimulation with Staphylococcal enterotoxin B (SEB)
rodent PD-1 = experiment: cross-reactivity with rodent PD-1; assay type: binding
human PD-1 = molecular target: T1, human PD-1 (human, UniProt Q15116 25-167, limits assumed); experiment: Biacore (SPR); format not stated
T1 construct: also called human PD1 antigen; Programmed Death 1
T1 sequence (Q15116 25-167 limits assumed): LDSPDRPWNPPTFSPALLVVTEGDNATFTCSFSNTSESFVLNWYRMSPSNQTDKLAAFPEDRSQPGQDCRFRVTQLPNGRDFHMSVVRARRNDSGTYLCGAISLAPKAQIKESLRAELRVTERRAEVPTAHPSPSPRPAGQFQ

Question: Which “survival rate at one year” value (HNSCC) does the source give for “nivolumab: anti-programmed death-1 (PD-1) antibody” here?
Answer: Its value is 36%.

Question: Which IC50 [1] does the source give for `C[C@@H]1OCC2(CCN(c3cnc(Sc4ccnc(N)c4Cl)c(N)n3)CC2)[C@@H]1N` [TNO155, (3S,4S)-8-(6-amino-5-((2-amino-3-chloropyridin-4-yl)thio)pyrazin-2-yl)-3-methyl-2-oxa-8-azaspiro[4.5]decan-4-amine] here?
Answer: The IC50 was 8 nM and 0.0034 µg/mL.

Question: And the IC50 [2]?
Answer: The IC50 was 35 nM.

Question: And the IC50 [3]?
Answer: Its IC50 is 100 nM.

Question: What about the IC50 [4] of the same molecule?
Answer: The IC50 was 470 nM.

Question: What about the “decrease in DUSP6 mRNA transcript” value ([5]; DETROIT-562 in vivo) of the same molecule?
Answer: The value was “approximately 95%”.

Question: And the tumor regression ([5]; twice-daily schedule, DETROIT-562)?
Answer: Its tumor regression is 47%.

Question: And the “effect on cell proliferation or viability” value (MC38 cell line)?
Answer: Its value is “no effect on cell proliferation or viability”.

Question: What about the anti-tumor activity (MC38 xenografts; 20 mg/kg BID, MC38 in NSG mice) of the same molecule?
Answer: Its anti-tumor activity is “lack of anti-tumor activity”.

Question: And the “impact on downstream MAPK-signaling markers (phospho-ERK, phospho-RSK) in tumor cells” value (MC38 xenografts; MC38 with G503V mutation)?
Answer: Its value is “no impact”.

Question: What about the “treatment/control (T/C)” value (MC38 tumors) of the same molecule?
Answer: The value was 33.3%.

Question: What about the “M-CSF stimulated proliferation of CD14+ monocytes” value (CD14+ monocytes) of the same molecule?
Answer: The value was “blocked”.

Question: What about the MTD (in vivo) of the same molecule?
Answer: The MTD was 20 mg/kg.

B1: PDR001 (spartalizumab) (antibody, V domains shown)
VH: EVQLVQSGAEVKKPGESLRISCKGSGYTFTTYWMHWVRQATGQGLEWMGNIYPGTGGSNFDEKFKNRVTITADKSTSTAYMELSSLRSEDTAVYYCTRWTTGTGAYWGQGTTVTVSS
VL: EIVLTQSPATLSLSPGERATLSCKSSQSLLDSGNQKNFLTWYQQKPGQAPRLLIYWASTRESGVPSRFSGSGSGTDFTFTISSLEAEDAATYYCQNDYSYPYTFGQGTKVEIK
Question: What does the source list for B1?
Answer: enhancement of IL-2 production (IL-2 production): approximately 2 fold; cross-reactivity with rodent PD-1 (rodent PD-1): does not cross-react; Kd (human PD-1): 0.827 nM
